Data from paper PMC4891710, “Unexpected involvement of staple leads to redesign of selective bicyclic peptide inhibitor of Grb7” (Scientific Reports, 2016).
Entries after “also recorded” stand apart in the source; their conditions may differ. Where two headings read alike, the source gives them in different places. Blank lines part the entries; values can stand above or below the molecule they belong to. Positions of bridges follow the written chain, without caps; N, C: chain ends. Non-standard residues stand in square brackets, D forms with d. Residues, ends and D or L forms follow the SMILES beside them. Ser(allyl) = C=CCOC[C@H](N)C(=O)O

Experiments:
Grb7-SH2 domain [1] = target: T1, Grb7-SH2 domain (Homo sapiens, UniProt Q14451); parameters: Grb7-SH2 (encoding residues 415–532); made in house; host or cells: E. coli BL21 (DE3) pLysS; conditions: previously determined by ITC; cited from earlier work
Grb7-SH2 domain [2] = target: T1, Grb7-SH2 domain; experiment: SPR binding of G7 peptides to GST-Grb7-SH2 domain; conditions: for Kd: KD (equilibrium dissociation constant), steady-state equilibrium, single-site model, 50 mM sodium phosphate, 150 mM NaCl, 1 mM DTT, pH 7.4, 25 °C; for Bmax (maximum binding signal): fit to single-site saturation model
Grb14-SH2 domain = target: T2, Grb14-SH2 domain (Homo sapiens, UniProt Q14449); experiment: SPR binding of G7-B4 to GST-Grb14-SH2 domain
T2 construct: Grb14-SH2 (encoding residues 426–540); made in house; host or cells: E. coli BL21 (DE3) pLysS
T2 sequence (Q14449 426-540): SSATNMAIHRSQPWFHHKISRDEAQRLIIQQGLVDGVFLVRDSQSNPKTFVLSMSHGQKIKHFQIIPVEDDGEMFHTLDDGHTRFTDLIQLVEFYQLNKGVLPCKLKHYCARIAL
Text: (§1) Previous studies have established the preferential binding of the G7-18NATE peptide to Grb7-SH2 over closely related SH2 domains (Grb10- and Grb14-SH2 domains that share 67% and 65% identity respectively, to the Grb7-SH2 and Grb2-SH2 (~26% identity) domain that shares the pYXN peptide recognition motif)[26]. In order to determine whether the bicyclic peptide G7-B4 retains its specificity for the Grb7-SH2 domain we measured the binding of G7-B4 to Grb2-, Grb10- and Grb14-SH2 domains using SPR. […] Therefore the binding of G7-B4 to Grb2-, Grb10- and Grb14-SH2 is over 130 times weaker than binding to Grb7-SH2 domain, showing that G7-B4 is highly specific for the Grb7-SH2 domain.
(§2) The pGEX2T plasmids with inserts containing Grb7-SH2 (encoding residues 415–532), Grb2-SH2 (encoding residues 58–160), Grb10-SH2 (encoding residues 471–594) and Grb14-SH2 (encoding residues 426–540) were kindly provided by Dr. Roger Daly. Glutathion-S-Transferase (GST)-Grb2-SH2, GST-Grb7-SH2, Grb-10-SH2 and GST-Grb14-SH2 were all expressed and purified as previously described. […] The free Grb7-SH2 used in crystallography was expressed as a GST-fusion protein and was purified by GST affinity, followed by thrombin cleavage to liberate free Grb7-SH2, and then purified by cation exchange chromatography, and size exclusion chromatography as previously described. […]

Grb10-SH2 domain = target: T3, Grb10-SH2 domain (Homo sapiens, UniProt Q13322); experiment: SPR binding of G7-B4 to Grb10-SH2 domain
T3 construct: Grb10-SH2 (encoding residues 471–594); made in house; host or cells: E. coli BL21 (DE3) pLysS
T3 sequence (Q13322 471-594): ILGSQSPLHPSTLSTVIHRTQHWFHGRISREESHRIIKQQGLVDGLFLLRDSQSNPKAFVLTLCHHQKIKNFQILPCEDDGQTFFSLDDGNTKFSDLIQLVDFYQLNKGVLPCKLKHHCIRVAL
Text: as §1, §2

Grb2-SH2 domain = target: T4, Grb2-SH2 domain (Homo sapiens, UniProt P62993); experiment: SPR binding of G7-B4 to GST-Grb2-SH2 domain
T4 construct: Grb2-SH2 (encoding residues 58–160); made in house; host or cells: E. coli BL21 (DE3) pLysS
Text: as §1, §2

GST-Grb7-SH2 [3] = target: T5, GST-Grb7-SH2 (UniProt Q14451 415-532); experiment: SPR; BIAcore T100; GST-SH2 proteins captured on anti-GST antibody on a CM5 chip, GST on the control cells; peptides 0-100 uM injected 60 s at 30 uL/min; 50 mM sodium phosphate, 150 mM NaCl, 1 mM DTT, pH 7.4; 25 C; KD from steady-state curves, single-site model; conditions: both partners purified
T5 construct: pGEX2T insert; GST fusion used in SPR, captured by an anti-GST antibody; also called Grb7-SH2 domain

GST-Grb7-SH2 [4] = target: T5, GST-Grb7-SH2; experiment: as above; conditions: both partners purified; remark: listed apart in the source
[5] = SPR, no curvature up to 100 μM, saturation well below 50%

T1 sequence (Q14451 415-532): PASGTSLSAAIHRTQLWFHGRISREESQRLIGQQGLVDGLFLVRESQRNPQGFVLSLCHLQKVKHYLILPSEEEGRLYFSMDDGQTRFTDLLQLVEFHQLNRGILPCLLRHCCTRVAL
T5 sequence (Q14451 415-532): as above
T4 sequence (P62993 58-160): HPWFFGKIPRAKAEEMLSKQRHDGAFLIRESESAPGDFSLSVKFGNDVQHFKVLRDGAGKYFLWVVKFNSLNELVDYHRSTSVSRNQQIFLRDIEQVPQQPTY

Molecule: NC(=O)C[C@@H]1NC(=O)[C@H](CC(=O)O)NC(=O)[C@H](Cc2ccc(O)cc2)NC(=O)CNC(=O)[C@H](CCC(=O)O)NC(=O)[C@H](Cc2ccccc2)NC(=O)[C@@H]2COCC=CCOC[C@H](NC1=O)C(=O)N[C@@H](Cc1ccccc1)C(=O)N1CCC[C@H]1C(=O)N[C@H](C(N)=O)CSCC(=O)N2 [Peptide G7-B1] ({CH2CO}-[Ser(allyl)]FEGYDN[Ser(allyl)]FPC-NH2; staple 1-8; thioether N-11)
Kd (Grb7-SH2 domain [1]): 1.9 µM

Molecule: NC(=O)C[C@@H]1NC(=O)[C@H](CC(=O)O)NC(=O)[C@H](Cc2ccc(O)cc2)NC(=O)CNC(=O)[C@H](CCC(=O)O)NC(=O)[C@H](Cc2ccccc2)NC(=O)[C@@H]2COCC=CCOC[C@H](NC1=O)C(=O)N1CCC[C@H]1C(=O)N[C@H](C(N)=O)CSCC(=O)N2 [Peptide G7-B3] ({CH2CO}-[Ser(allyl)]FEGYDN[Ser(allyl)]PC-NH2; staple 1-8; thioether N-10)
Kd (Grb7-SH2 domain [2]; SPR): 4.9 ± 0.03 µM
Bmax (maximum binding signal) (Grb7-SH2 domain [2]; SPR): 53.47 ± 0.02 RU
times weaker affinity compared to G7-B1 (Grb7-SH2 domain [2]; ratio of SPR KD values): approximately 3 times

Molecule: C=CCOC[C@@H]1NC(=O)CSC[C@@H](C(N)=O)NC(=O)[C@H](COCC=C)NC(=O)[C@H](CC(N)=O)NC(=O)[C@H](CC(=O)O)NC(=O)[C@H](Cc2ccc(O)cc2)NC(=O)CNC(=O)[C@H](CCC(=O)O)NC(=O)[C@H](Cc2ccccc2)NC1=O [Peptide G7-B4NS] ({CH2CO}-[Ser(allyl)]FEGYDN[Ser(allyl)]C-NH2; thioether N-9)
Kd (Grb7-SH2 domain [2]; SPR): 4.9 µM
Bmax (maximum binding signal) (Grb7-SH2 domain [2]; SPR): 34.78 ± 0.01 RU
fold loss in binding affinity compared to G7-B4 (Grb7-SH2 domain [2]; ratio of SPR KD values): 6 fold

Molecule: CH3-CO-NH2-(XFEGYDNX)-CONH2 where X = O-allylserine (Ac-[Ser(allyl)]FEGYDN[Ser(allyl)]-NH2; staple 1-8; SMILES CC(=O)N[C@H]1COCC=CCOC[C@@H](C(N)=O)NC(=O)[C@H](CC(N)=O)NC(=O)[C@H](CC(=O)O)NC(=O)[C@H](Cc2ccc(O)cc2)NC(=O)CNC(=O)[C@H](CCC(=O)O)NC(=O)[C@H](Cc2ccccc2)NC1=O) [Peptide G7-B1NT]
binding to Grb7-SH2 domain (in words) (Grb7-SH2 domain [2]; SPR, peptide up to 100 μM): very weak binding; also recorded: dramatically reduced affinity

B2: G7-B4NS (cyclo-(CH2CO-(XFEGYDNXC)-CONH2 where X = O-allylserine), without ring closing metathesis (peptide)
chain: {CH2CO}-[Ser(allyl)]FEGYDN[Ser(allyl)]C-NH2
modifications: thioether N-9
SMILES: C=CCOC[C@@H]1NC(=O)CSC[C@@H](C(N)=O)NC(=O)[C@H](COCC=C)NC(=O)[C@H](CC(N)=O)NC(=O)[C@H](CC(=O)O)NC(=O)[C@H](Cc2ccc(O)cc2)NC(=O)CNC(=O)[C@H](CCC(=O)O)NC(=O)[C@H](Cc2ccccc2)NC1=O
Kd (GST-Grb7-SH2 [4]): 4.93 µM

The next lines start with the values.

Kd (Grb14-SH2 domain; [5]): > 100 µM
times weaker binding than to Grb7-SH2 domain (Grb14-SH2 domain; selectivity Grb7-SH2 over Grb14-SH2): over 130 times
Kd (Grb10-SH2 domain; [5]): > 100 µM
times weaker binding than to Grb7-SH2 domain (Grb10-SH2 domain; selectivity Grb7-SH2 over Grb10-SH2): over 130 times
Kd (Grb2-SH2 domain; [5]): > 100 µM
times weaker binding than to Grb7-SH2 domain (Grb2-SH2 domain; selectivity Grb7-SH2 over Grb2-SH2): over 130 times
Molecule: NC(=O)C[C@@H]1NC(=O)[C@H](CC(=O)O)NC(=O)[C@H](Cc2ccc(O)cc2)NC(=O)CNC(=O)[C@H](CCC(=O)O)NC(=O)[C@H](Cc2ccccc2)NC(=O)[C@@H]2COCC=CCOC[C@H](NC1=O)C(=O)N[C@H](C(N)=O)CSCC(=O)N2 [Peptide G7-B4] ({CH2CO}-[Ser(allyl)]FEGYDN[Ser(allyl)]C-NH2; staple 1-8; thioether N-9)

koff (GST-Grb7-SH2 [3]): ~0.21 s⁻¹
Kd (GST-Grb7-SH2 [4]): 1.5 µM
B1: G7-B1 (cyclo-(CH2CO-(XFEGYDNXFPC)-CONH2 where X = O-allylserine) (peptide)
chain: {CH2CO}-[Ser(allyl)]FEGYDN[Ser(allyl)]FPC-NH2
modifications: staple 1-8; thioether N-11
SMILES: NC(=O)C[C@@H]1NC(=O)[C@H](CC(=O)O)NC(=O)[C@H](Cc2ccc(O)cc2)NC(=O)CNC(=O)[C@H](CCC(=O)O)NC(=O)[C@H](Cc2ccccc2)NC(=O)[C@@H]2COCC=CCOC[C@H](NC1=O)C(=O)N[C@@H](Cc1ccccc1)C(=O)N1CCC[C@H]1C(=O)N[C@H](C(N)=O)CSCC(=O)N2

koff (GST-Grb7-SH2 [3]): ~0.25 s⁻¹
Kd (GST-Grb7-SH2 [4]): 0.83 µM
Molecule: {CH2CO}-[Ser(allyl)]FEGYDN[Ser(allyl)]C-NH2 (staple 1-8; thioether N-9) [G7-B4 (cyclo-(CH2CO-(XFEGYDNXC)-CONH2 where X = O-allylserine)]
